Data reported in US12599660B2, “Therapeutic RNA for HPV-positive cancer” (priority 2020, dated 2026).

Test system: TC-1 luc tumors
Test: TC-1 luc tumor model with E7 RNA-LPX and cisplatin chemotherapy: tumor growth and survival
Assay type: in vivo, C57BL/6 mice
Details: 40 μg RNA-LPX day 16, 80 μg cisplatin or PBS i.p. day 22 and 28
Method: For therapeutic tumor experiments, C57BL/6 mice were injected with 1×10^5 TC-1 or TC-1 luc tumor cells and 5×10^5 C3 tumor cells subcutaneously into to the right flank. Tumor growth was measured unblinded with a caliper every three to four days and tumor volumes calculated by (a^2 x b)/2 (a, width; b, length). Mice were immunized intravenously with 40 μg E7 or control (OVA) RNA-LPX. Arrows in vaccination schemes indicate immunization. Mice were randomized according to their tumor size prior RNA-LPX immunization. The orthovoltage X-ray source XRAD320 (Precision X-Ray Inc.) was used for tumor irradiation, irradiating tumors locally with different doses at a dose rate of 0.47 Gy/min. Biological effective doses were calculated using the formula
In some experiments, mice received 80 μg cisplatin chemotherapy or PBS intraperitoneal (i.p.) twice after RNA-LPX vaccination.
For Example 9, Statistical analysis was performed with GraphPad PRISM 9. For tumor growth analysis, two-way analysis of variance (ANOVA) was performed and when determined significant (p<0.05), Tukey's multiple comparison test run.

## N.N.[Cl][Pt][Cl] [Cisplatin, cis-diamminedichloroplatinum (II)]
  tumor growth: only slightly improved tumor growth
